Source: article PMC12040169 (PLOS Biology, 2025)
Values after ≈ are worked out from the molar mass of the structure shown. Like-named read-outs stand apart in the source and are kept apart here.

Assays:
[1] = test system: T1, C. trachomatis L2/434/Bu expressing GFP (CTL2-GFP); design: species or system HeLa; C. trachomatis total inclusion area by high-content imaging, normalised to DMSO; settings: 28.5 h, 10 µM; inhibitor
T1 construct: L2/434/Bu GFP intracellular growth in HeLa cells
Description: In this process, we also complemented the assay described above with an imaging-based readout (Fig 1B). After measurements of bulk GFP and resorufin fluorescence, cells were fixed, stained with the DNA dye Hoechst, and imaged at a high-content imaging platform to detect chlamydial inclusions (GFP) and host cell nuclei (Hoechst). The total area and number of inclusions in individual wells and the number of nuclei then served as additional proxies for chlamydial growth and host cell viability. […] MICs were calculated as described above.

[2] = test system: T2, CTL2-GFP (C. trachomatis L2/434/Bu, GFP-expressing); design: species or system HeLa; Intracellular C. trachomatis growth in HeLa cells, bulk GFP fluorescence relative to DMSO; settings: 28.5 h, 10 µM; inhibitor
T2 construct: L2/434/Bu, GFP-expressing

[3] = in vitro; settings: human, hela cells
[4] = in vitro; design: Viability of infected HeLa host cells, resazurin conversion, bulk resorufin fluorescence relative to DMSO; settings: human, hela cells; bulk resorufin, single well
[5] = test system: T3, C. albicans; assay: microbe, parasite or virus in culture; design: Microbial growth in liquid dilution assay, OD600 relative to DMSO control; settings: Candida albicans, read-out: C. albicans, IC50 (µM) estimate
T3 construct: DSM 1577

[6] = test system: T2, CTL2-GFP (C. trachomatis L2/434/Bu, GFP-expressing); assay: microbe, parasite or virus in culture; design: Intracellular C. trachomatis growth in HeLa cells, bulk GFP fluorescence relative to DMSO; settings: Chlamydia trachomatis, HeLa, 28.5 h; bulk GFP
Protocol: (§1) MICs were calculated as described above.

[7] = test system: T4, G. vaginalis; assay: microbe, parasite or virus in culture; design: Microbial growth in liquid dilution assay, OD600 relative to DMSO control; settings: Gardnerella vaginalis, read-out: G. vaginalis, IC50 (µM) estimate
T4 construct: DSM 4944

[8] = test system: T5, L. crispatus; assay: microbe, parasite or virus in culture; design: Microbial growth in liquid dilution assay, OD600 relative to DMSO control; settings: Lactobacillus crispatus; estimated IC50; read-out: L. crispatus, IC50 (µM) estimate
T5 construct: DSM 20584

[9] = test system: T6, E. faecalis; assay: microbe, parasite or virus in culture; design: Microbial growth in liquid dilution assay, OD600 relative to DMSO control; settings: Enterococcus faecalis; estimated IC50; read-out: E. faecalis, IC50 (µM) estimate
T6 construct: DSM 20478
Description: (§2) Compound effects on commensal microbes in dilution assay As our objective was to discover compounds that inhibit Chlamydia selectively but spare commensal bacteria, we further tested 15 of our top compounds (c1e–c10e and c1v–c5v) against five bacterial species, Escherichia coli, Lactobacillus reuteri, Enterococcus faecalis, Bacteroides thetaiotaomicron, and Bifidobacterium adolescentis, representing the four dominating phyla of the human gut microbiota. […] Exceptions were c3e and c5e, which at 30 µM were inhibitory to some species. […] Of note, c1e–c3e had little or no effect on the growth of an even larger set of species of gut bacteria, also including Blautia coccoides, Prevotella copri, Prevotella histicola, Bacteroides fragilis, and Dubosiella newyorkensis, when tested in radial diffusion assays, in which the bacteria were exposed to compounds for 24–48 h before measurements of growth inhibition zones (S10B Fig and S5G Data).

[10] = test system: T7, B. adolescentis; assay: microbe, parasite or virus in culture; design: Microbial growth in liquid dilution assay, OD600 relative to DMSO control; settings: Bifidobacterium adolescentis; estimated IC50; read-out: B. adolescentis, IC50 (µM) estimate
T7 construct: DSM 20083
Description: as §2

[11] = test system: T8, B. thetaiotaomicron; assay: microbe, parasite or virus in culture; design: Microbial growth in liquid dilution assay, OD600 relative to DMSO control; settings: Bacteroides thetaiotaomicron; estimated IC50; read-out: B. thetaiotaomicron, IC50 (µM) estimate
T8 construct: DSM 2079
Description: as §2

[12] = test system: T9, L. reuteri; assay: microbe, parasite or virus in culture; design: Microbial growth in liquid dilution assay, OD600 relative to DMSO control; settings: Limosilactobacillus reuteri; estimated IC50; read-out: L. reuteri, IC50 (µM) estimate
T9 construct: DSM 20016
Description: as §2

[13] = test system: T10, E. coli; assay: microbe, parasite or virus in culture; design: Microbial growth in liquid dilution assay, OD600 relative to DMSO control; settings: Escherichia coli; estimated IC50; read-out: E. coli, IC50 (µM) estimate
T10 construct: DSM 301
Description: as §2

[14] = test system: T11, L. iners; assay: organism not typed; design: Microbial growth in liquid dilution assay, OD600 relative to DMSO control; settings: estimated IC50; read-out: L. iners, IC50 (µM) estimate
T11 construct: DSM 13335

[15] = test system: T2, CTL2-GFP (C. trachomatis L2/434/Bu, GFP-expressing); assay: microbe, parasite or virus in culture; design: species or system HeLa; Intracellular C. trachomatis growth in HeLa cells, bulk GFP fluorescence relative to DMSO; settings: Chlamydia trachomatis, 28.5 h; bulk GFP
Protocol: as §1

[16] = target: T12, ctFabH (CTL2 FabH), His6(-fMet)SG-ctFabH (Chlamydia trachomatis, UniProt O84242); assay: continuous UV assay of acetoacetyl-CoA at […] nm; format: biochemical; settings: 20 µM enzyme, 100 µM acetyl-CoA, 100 µM malonyl-CoA, pH 8.0, 25 °C, 50 mM MgCl2; surrogate of malonyl-ACP
T12 construct: synthetic gene, modified pRSF-Duet1, E. coli host; partly acylated (mainly pentanoyl) as purified
T12 sequence (O84242 2-327): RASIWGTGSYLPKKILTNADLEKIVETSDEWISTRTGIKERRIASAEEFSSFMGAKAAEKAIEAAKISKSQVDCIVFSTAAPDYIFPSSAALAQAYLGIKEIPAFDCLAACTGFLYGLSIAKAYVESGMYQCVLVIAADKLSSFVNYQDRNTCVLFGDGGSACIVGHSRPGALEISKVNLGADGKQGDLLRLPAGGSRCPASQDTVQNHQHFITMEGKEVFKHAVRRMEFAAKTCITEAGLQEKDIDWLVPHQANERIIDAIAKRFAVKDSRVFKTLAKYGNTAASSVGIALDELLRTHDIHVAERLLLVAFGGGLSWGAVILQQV

[17] = test system: T1, C. trachomatis L2/434/Bu expressing GFP (CTL2-GFP); assay: microbe, parasite or virus in culture; design: C. trachomatis GFP growth in infected HeLa cells, bulk GFP fluorescence normalised to DMSO; settings: Chlamydia trachomatis, HeLa, 26 h; read-out: IC50 (µM), bulk GFP fluorescence
Protocol: as §1

[18] = test system: T1, C. trachomatis L2/434/Bu expressing GFP (CTL2-GFP); assay: microbe, parasite or virus in culture; design: C. trachomatis total inclusion area by high-content imaging, normalised to DMSO; settings: Chlamydia trachomatis, HeLa, 28.5 h; read-out: IC50 (µM), total inclusion area
Outline: (§3)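 GFP/resorufin bulk fluorescence read → fix → Hoechst stain → high-content imaging. Inclusion total area + count = growth proxy; nuclei count = host viability proxy. MIC calc per earlier method.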

[19] = test system: T2, CTL2-GFP (C. trachomatis L2/434/Bu, GFP-expressing); assay: microbe, parasite or virus in culture; design: species or system HeLa; C. trachomatis growth in HeLa, dose-response, mean of bulk GFP fluorescence and imaged total inclusion area; settings: Chlamydia trachomatis, 28.5 h; mean of GFP and inclusion area
Outline: as §3

[20] = test system: T2, CTL2-GFP (C. trachomatis L2/434/Bu, GFP-expressing); assay: microbe, parasite or virus in culture; design: C. trachomatis growth in HeLa, dose-response, mean of bulk GFP fluorescence and imaged total inclusion area; settings: Chlamydia trachomatis, HeLa, 28.5 h; mean of GFP and inclusion area
Outline: as §3

[21] = in vitro; design: Viability of infected HeLa host cells, resazurin conversion, bulk resorufin fluorescence relative to DMSO; settings: human, hela cells; bulk resorufin, mean of 3

CCn1cc(C(=O)O)c(=O)c2cc(F)c(NC3CCCCC3)cc21 [CBK286635]
% of control remaining [1]: 72.3144 | % of control remaining [2]: 100.652 | viability at 28.5 h, 10 µM [3]: 89.2%

O=C(c1cccc(S(=O)(=O)F)c1)N1CCCCC1 [CBK074224]
viability at 28.5 h, 10 µM [4]: 96.6%

CCc1cccc(OCC(=O)Nc2ccc(S(=O)(=O)Nc3onc(C)c3C)cc2)c1 [c2v]
IC50 [5]: > 30 µM | IC50 [6]: 0.471 µM | IC50 [7]: > 30 µM | IC50 [8]: > 30 µM | IC50 [9]: > 30 µM | IC50 [10]: > 30 µM | IC50 [11]: > 30 µM | IC50 [12]: > 30 µM | IC50 [13]: > 30 µM | IC50 [14]: > 30 µM | MIC [15]: 0.693 µM (≈ 0.298 µg/mL)

CC(C)(COP(=O)(O)OP(=O)(O)OC[C@H]1O[C@@H](n2cnc3c(N)ncnc32)[C@H](O)[C@@H]1OP(=O)(O)O)[C@@H](O)C(=O)NCCC(=O)NCCSC(=O)CC(=O)O [malonyl-CoA]
continuous UV assay of acetoacetyl-CoA at 302 nm [16]: using acetyl-CoA and malonyl-CoA (instead of malonyl-ACP) as substrates

O=C(NN=Cc1ccc([N+](=O)[O-])o1)c1nc(-c2ccccc2)cc(-c2ccccc2)n1 [c3e]
IC50 [17]: 0.118 µM | IC50 [18]: 0.133 µM

CCOC(=O)CC(C)(O)P(=O)(OC)OC (stereo not drawn) [CBK261287]
viability at 28.5 h, 10 µM [4]: 101%

O=C(CC1CCN(CCc2ccccc2)CC1)Nc1cccc(-n2cccn2)c1 [c4e]
IC50 [5]: > 30 µM | IC50 [7]: > 30 µM | IC50 [8]: > 30 µM | IC50 [9]: > 30 µM | IC50 [10]: > 30 µM | IC50 [11]: > 30 µM | IC50 [12]: > 30 µM | IC50 [13]: > 30 µM | MIC [19]: 1.56 µM (≈ 0.605 µg/mL) | IC50 [14]: > 30 µM | IC50 [20]: 0.332 µM | viability at 28.5 h, 0.000416667 µM [21]: 92.2% | viability at 28.5 h, 0.00125 µM [21]: 95.9% | viability at 28.5 h, 0.00375 µM [21]: 89.2% | viability at 28.5 h, 0.0123333 µM [21]: 92.7% | viability at 28.5 h, 0.037 µM [21]: 90.6% | viability at 28.5 h, 0.111 µM [21]: 94.2% | viability at 28.5 h, 0.333 µM [21]: 86.2% | viability at 28.5 h, 1 µM [21]: 89.9% | viability at 28.5 h, 3 µM [21]: 82.9% | viability at 28.5 h, 10 µM [21]: 88.5% | viability at 28.5 h, 30 µM [21]: 87.2%

S=P(Oc1ccccc1)(Oc1ccccc1)Oc1ccccc1 [CBK260987]
viability at 28.5 h, 10 µM [4]: 87.5%
